The test system of the experiment is acetyl transferase from Taxus baccata. Nature of the experiment: Enzymatic acetylation of substrates in the enzyme reactor (substrate specificity). The format is biochemical. The conditions noted are these: used as in the example in place of 10-DAB; compared with 10-deacetyl baccatin III.
Protocol: The synthesis in the enzyme reactor is carried out under the following conditions: The solvent used in the process is a 1:4 mixture of chloroform and heptane.
For the compound `CC(=O)O[C@@]12CO[C@@H]1C[C@H](O)[C@@]1(C)C(=O)[C@H](O)C3=C(C)[C@@H](OC(=O)[C@H](O)[C@@H](NC(=O)c4ccccc4)c4ccccc4)C[C@@](O)([C@@H](OC(=O)c4ccccc4)[C@H]21)C3(C)C` [10-Deacetyl taxol], the “acetylation as substrate of the acetyl transferase” value is listed as “significantly weaker as a substrate”.
The entry for `CC(=O)O[C@H]1C(=O)[C@@]2(C)[C@H]([C@H](OC(=O)c3ccccc3)[C@]3(O)C[C@H](OC(=O)[C@H](O)[C@@H](NC(=O)c4ccccc4)c4ccccc4)C(C)=C1C3(C)C)[C@]1(OC(C)=O)CO[C@@H]1C[C@@H]2O` [taxol] is “not acetylated”; for baccatin III it is “not acetylated”.

Values taken from patent publication US6458568B1, “Method for the production of baccatin-III by enzymatic synthesis” (Institut fuer Bioanalytik, Umwelt-Toxikologie und …, priority 1998, dated 2002).
